Assays:
Assay type in all cases: in vivo
Iba1-positive microglia = test: Immunofluorescence of Iba1-positive microglia in spinal dorsal horn of CFA mice; settings: 3 days after CFA, 30 mg/kg i.p.
Procedure: Given the critical role of microglial activation in inflammation-mediated responses, we investigated whether Compound 14e could modulate microglial activity in the spinal dorsal horn of mice following Complete Freund’s Adjuvant (CFA) injection. First, we assessed the expression of the microglial marker Iba1 in the L4–L6 segments of the spinal cord.
FIGURE 4 Compound 14e prevented the upregulation of Iba1 in CFA mice.
The mice were anesthetized with isoflurane, and 40 μL of CFA (Sigma-Aldrich) was intraplantarly injected into the mid-plantar surface of their left hind paws. As for the control group, an equivalent volume of normal saline was injected ([Jiang et al., 2018]).
(§1) The compound 14e were diluted with 10% DMSO, and were intraperitoneally injected with 30 mg/kg into the mice once a day for 3 days after CFA. The dosage of compound 14e was determined based on our preliminary experiments.
Under anesthesia with 1% pentobarbital sodium (0.1 g/kg, i. p.), mice were perfused intracardially with warm normal saline followed by cold 4% paraformaldehyde (PFA) in 0.1 M phosphate buffer (PB). The whole spinal cord in L4 – L5 segments was rapidly dissected and post-fixed in 4% PFA for 6 h, then cryoprotected by incubation of PB with 20% and 30% sucrose solutions at 4 °C in turn. […] Images were taken with a fluorescence microscope (BX53, Olympus).

[1] = system: CFA-induced inflammatory pain model; test: CFA-induced thermal hyperalgesia, paw withdrawal latency; settings: CFA mice, 30 mg/kg i.p., ipsilateral side, 12 to 72 h post-CFA
Procedure: To evaluate the analgesic effects of Compound 14e in vivo, we established an inflammatory pain model using intraplantar injection of CFA. Compound 14e (30 mg/kg) was administered intraperitoneally at 6 h, with subsequent doses at 48 and 72 h after CFA injection. Behavioral assessments, including von Frey testing for mechanical allodynia and heat stimuli for thermal hyperalgesia, were conducted on the injected hind paw at baseline (BL), as well as at 6, 12, 18, 24, 48 and 72 h post-CFA injection. Additionally, flinching and guarding behaviors, indicators of spontaneous pain, were evaluated 72 h after CFA injection.
FIGURE 5 Compound 14e attenuates mechanical allodynia, thermal hyperalgesia and spontaneous pain of inflammatory pain in mice. (A,B) Evaluation of CFA-induced mechanical allodynia as assessed by withdrawal frequency to 0.07 g (A) and 0.4 g (B) von Frey filaments in mice repetitive treated with 10% DMSO or compound 14e. […]
as §1
For the thermal nociceptive response, paw withdrawal latencies (PWLs) to thermal stimulus were measured by a heat flux radiometer (Ugo Basile S.R.L., Italy) ([Liu et al., 2023]). […]

IL-1β = test: ELISA of IL-1β in inflamed paw, spinal cord and serum of CFA mice; settings: ipsilateral L4–L6 spinal cord and serum, 72 h after CFA
From the text: To determine whether the analgesic effects of Compound 14e are associated with reduced local and systemic inflammation, we measured the levels of inflammatory factors in the inflamed paw tissue, ipsilateral L4–L6 spinal cord, and peripheral blood. The results indicated a significant increase in the protein levels of TNF-α and IL-1β in the inflamed paw, spinal cord, and serum of mice in the CFA group compared to the vehicle group.
FIGURE 6 Compound 14e reduces TNF-α and IL-1β in the inflamed hindpaw skin, spinal cord and peripheral blood 72 h after CFA-induced inflammation. (A,D) Expression levels of TNF-α and IL-1β in the inflamed skin tissue. (B,E) Expression levels of TNF-α and IL-1β in ipsilateral L4–6 spinal cord. […]
Under anesthesia with 1% pentobarbital sodium, serum was obtained from the mice orbits, after coagulation at room temperature for 2 h, the sample was then centrifuged at 1,000 × g for 20 min at 4 °C, with the supernatant collected. […] The protein concentrations were determined using a bicinchoninic acid (BCA) kit (Pierce Biotechnology Inc.). The following inflammatory factors were measured using Mouse TNF-α ELISA kit (EM0183) and IL-1β ELISA kit (EM0109) obtained from Wuhan Fine Biotechnology Company, according to the product protocols. The O.D. absorbance at 450 nm was quantified in a ultramicroplate spectrophotometer (BioTek Epoch).

## O=C1COc2ccc(NC(=O)c3cccc(-c4cn(Cc5c(F)cccc5Cl)nn4)c3)cc2N1 [Compound 14e]
Iba1-positive microglia
  morphological changes and accumulation of Iba1-positive microglia (immunofluorescence): notably alleviated
[1]
  thermal hyperalgesia, paw withdrawal latency (PWL): significantly alleviated
IL-1β
  CFA-induced levels of IL-1β: significantly decreased
